Measured values from ChEMBL document CHEMBL1142742, “Synthesis and in vitro and in vivo structure-activity relationships of novel antifungal triazoles for dermatology” (2005).
In brackets after ≈: the same amount, converted by molar mass.

Columns and labels:
Assay type in all cases: functional
Trichophyton benhamiae = experiment: Minimum inhibitory concentration against Trichophyton mentagrophytes (n=20)
Epidermophyton floccosum = experiment: Minimum inhibitory concentration against Epidermophyton floccosum (n=12)
Mus musculus = organism: Mus musculus; experiment: Effective dose was measured in mice infected with Trichophyton mentagrophytes
Candida = experiment: Minimum inhibitory concentration against Candida species (n=24)
Aspergillus sp. = experiment: Minimum inhibitory concentration against Aspergillus species (n=8)
[1] = Minimum inhibitory concentration against Trichophyton species (n=80)
Trichophyton rubrum = experiment: Minimum inhibitory concentration against Trichophyton rubrum (n=14)
Trichophyton tonsurans = experiment: Minimum inhibitory concentration against Trichophyton tonsurans (n=18)
Cavia porcellus [2] = organism: Cavia porcellus; experiment: Effective dose was measured in guinea pig infected with Microsporum canis on 14th day
[3] = Minimum inhibitory concentration against Microsporum species (n=38)
Cavia porcellus [4] = organism: Cavia porcellus; experiment: Effective dose was measured in guinea pig infected with Microsporum canis on 7th day
Cavia porcellus [5] = organism: Cavia porcellus; experiment: Effective dose was measured in guinea pig infected with Microsporum canis on 21st day
[6] = Trichophyton benhamiae, read-out: MIC50
[7] = Trichophyton benhamiae, read-out: MIC90
[8] = Epidermophyton floccosum, read-out: MIC50
[9] = Epidermophyton floccosum, read-out: MIC90
[10] = Aspergillus sp., read-out: MIC50
[11] = Aspergillus sp., read-out: MIC90
[12] = Trichophyton rubrum, read-out: MIC50
[13] = Trichophyton rubrum, read-out: MIC90
[14] = Trichophyton tonsurans, read-out: MIC50
[15] = Trichophyton tonsurans, read-out: MIC90
[16] = Cavia porcellus, read-out: ED50

CC(C)N1CCN(c2ccc(N3CCN(c4ccc(OC[C@@H]5CO[C@@](Cn6cncn6)(c6ccc(F)cc6F)O5)cc4)CC3)cc2)C1=O
MIC50 (Trichophyton benhamiae; [6]): 0.032 µg/mL (≈ 0.0485 µM) | MIC90 (Trichophyton benhamiae; [7]): 0.032 µg/mL (≈ 0.0485 µM) | MIC50 (Epidermophyton floccosum; [8]): 0.032 µg/mL (≈ 0.0485 µM) | MIC90 (Epidermophyton floccosum; [9]): 0.093 µg/mL (≈ 0.141 µM) | ED50 (Mus musculus; Mus musculus, read-out: ED50): > 2.5 mg/kg | MIC90 (Candida): > 20 µg/mL | MIC50 (Candida; Candida, read-out: MIC50): 0.32 µg/mL (≈ 0.485 µM) | MIC50 (Aspergillus sp.; [10]): 0.66 µg/mL (≈ 1 µM) | MIC90 (Aspergillus sp.; [11]): 1.66 µg/mL (≈ 2.52 µM) | MIC50 ([1]; Trichophyton, read-out: MIC50): 0.32 µg/mL (≈ 0.485 µM) | MIC90 ([1]; Trichophyton, read-out: MIC90): 1 µg/mL (≈ 1.52 µM) | MIC50 (Trichophyton rubrum; [12]): 0.32 µg/mL (≈ 0.485 µM) | MIC90 (Trichophyton rubrum; [13]): 0.934 µg/mL (≈ 1.42 µM) | MIC50 (Trichophyton tonsurans; [14]): 1 µg/mL (≈ 1.52 µM) | MIC90 (Trichophyton tonsurans; [15]): 1 µg/mL (≈ 1.52 µM) | ED50 (Cavia porcellus [2]; [16]): 0.44 mg/kg | MIC50 ([3]; Microsporum, read-out: MIC50): 0.1 µg/mL (≈ 0.152 µM) | MIC90 ([3]; Microsporum, read-out: MIC90): 0.32 µg/mL (≈ 0.485 µM) | ED50 (Cavia porcellus [4]; [16]): 0.33 mg/kg | ED50 (Cavia porcellus [5]; [16]): 0.33 mg/kg

CCCn1c(=O)n(CC)c(=O)n(-c2ccc(N3CCN(c4ccc(OC[C@H]5CO[C@](Cn6cncn6)(c6ccc(F)cc6F)O5)cc4)CC3)cc2)c1=O
MIC50 (Trichophyton benhamiae; [6]): 0.32 µg/mL (≈ 0.438 µM) | MIC90 (Trichophyton benhamiae; [7]): 1 µg/mL (≈ 1.37 µM) | MIC50 (Epidermophyton floccosum; [8]): 1 µg/mL (≈ 1.37 µM) | MIC90 (Epidermophyton floccosum; [9]): 3.2 µg/mL (≈ 4.38 µM) | MIC90 (Candida): 10 µg/mL (≈ 13.7 µM) | MIC50 (Candida; Candida, read-out: MIC50): 1 µg/mL (≈ 1.37 µM) | MIC50 (Aspergillus sp.; [10]): 10 µg/mL (≈ 13.7 µM) | MIC90 (Aspergillus sp.; [11]): > 20 µg/mL | MIC50 ([1]; Trichophyton, read-out: MIC50): > 20 µg/mL | MIC90 ([1]; Trichophyton, read-out: MIC90): > 20 µg/mL | MIC50 (Trichophyton rubrum; [12]): 3.2 µg/mL (≈ 4.38 µM) | MIC90 (Trichophyton rubrum; [13]): 3.2 µg/mL (≈ 4.38 µM) | ED50 (Cavia porcellus [2]; [16]): > 2.5 mg/kg | MIC50 ([3]; Microsporum, read-out: MIC50): 1 µg/mL (≈ 1.37 µM) | MIC90 ([3]; Microsporum, read-out: MIC90): 13 µg/mL (≈ 17.8 µM) | ED50 (Cavia porcellus [4]; [16]): > 2.5 mg/kg | ED50 (Cavia porcellus [5]; [16]): > 2.5 mg/kg

CCN1C(=O)N(c2ccc(N3CCN(c4ccc(OC[C@H]5OC[C@](Cn6cncn6)(c6ccc(F)cc6F)O5)cc4)CC3)cc2)C(=O)C(C)(C)C1=O
MIC50 (Trichophyton benhamiae; [6]): 3.2 µg/mL (≈ 4.47 µM) | MIC90 (Trichophyton benhamiae; [7]): 3.2 µg/mL (≈ 4.47 µM) | MIC50 (Epidermophyton floccosum; [8]): 1 µg/mL (≈ 1.4 µM) | MIC90 (Epidermophyton floccosum; [9]): 2.98 µg/mL (≈ 4.16 µM) | MIC90 (Candida): > 20 µg/mL | MIC50 (Candida; Candida, read-out: MIC50): 0.66 µg/mL (≈ 0.922 µM) | MIC50 (Aspergillus sp.; [10]): > 20 µg/mL | MIC90 (Aspergillus sp.; [11]): > 20 µg/mL | MIC50 ([1]; Trichophyton, read-out: MIC50): 3.2 µg/mL (≈ 4.47 µM) | MIC90 ([1]; Trichophyton, read-out: MIC90): > 20 µg/mL | MIC50 (Trichophyton rubrum; [12]): 3.2 µg/mL (≈ 4.47 µM) | MIC90 (Trichophyton rubrum; [13]): 10 µg/mL (≈ 14 µM) | MIC50 (Trichophyton tonsurans; [14]): 3.2 µg/mL (≈ 4.47 µM) | MIC90 (Trichophyton tonsurans; [15]): 13 µg/mL (≈ 18.2 µM) | ED50 (Cavia porcellus [2]; [16]): 2.35 mg/kg | MIC50 ([3]; Microsporum, read-out: MIC50): 3.2 µg/mL (≈ 4.47 µM) | MIC90 ([3]; Microsporum, read-out: MIC90): > 20 µg/mL | ED50 (Cavia porcellus [4]; [16]): 2.35 mg/kg | ED50 (Cavia porcellus [5]; [16]): 2.35 mg/kg

CCCn1c(=O)n(CC)c(=O)n(-c2ccc(N3CCN(c4ccc(OC[C@@H]5OC[C@@](Cn6cncn6)(c6ccc(F)cc6F)O5)cc4)CC3)cc2)c1=O
MIC50 (Trichophyton benhamiae; [6]): > 20 µg/mL | MIC90 (Trichophyton benhamiae; [7]): > 20 µg/mL | MIC50 (Epidermophyton floccosum; [8]): > 20 µg/mL | MIC90 (Epidermophyton floccosum; [9]): > 20 µg/mL | MIC90 (Candida): > 20 µg/mL | MIC50 (Candida; Candida, read-out: MIC50): 10 µg/mL (≈ 13.7 µM) | MIC50 (Aspergillus sp.; [10]): > 20 µg/mL | MIC90 (Aspergillus sp.; [11]): > 20 µg/mL | MIC50 ([1]; Trichophyton, read-out: MIC50): > 20 µg/mL | MIC90 ([1]; Trichophyton, read-out: MIC90): > 20 µg/mL | MIC50 (Trichophyton rubrum; [12]): > 20 µg/mL | MIC90 (Trichophyton rubrum; [13]): > 20 µg/mL | MIC50 (Trichophyton tonsurans; [14]): > 20 µg/mL | MIC90 (Trichophyton tonsurans; [15]): > 20 µg/mL | ED50 (Cavia porcellus [2]; [16]): > 2.5 mg/kg | MIC50 ([3]; Microsporum, read-out: MIC50): > 20 µg/mL | MIC90 ([3]; Microsporum, read-out: MIC90): > 20 µg/mL | ED50 (Cavia porcellus [4]; [16]): > 2.5 mg/kg | ED50 (Cavia porcellus [5]; [16]): > 2.5 mg/kg

CC(C)N1CCN(c2ccc(N3CCN(c4ccc(OC[C@H]5OC[C@](Cn6cncn6)(c6ccc(F)cc6F)O5)cc4)CC3)cc2)C1=O (stereo in doubt; 4c) [PRAMICONAZOLE]
MIC50 (Trichophyton benhamiae): 0.01 µg/mL (≈ 0.0152 µM) | MIC90 (Trichophyton benhamiae): 0.032 µg/mL (≈ 0.0485 µM) | MIC50 (Epidermophyton floccosum): 0.32 µg/mL (≈ 0.485 µM) | MIC90 (Epidermophyton floccosum): 0.093 µg/mL (≈ 0.141 µM) | ED50 (Mus musculus): <0.63 mg/kg | MIC50 (Candida): 0.1 µg/mL (≈ 0.152 µM) | MIC50 (Aspergillus sp.): >20 µg/mL | MIC90 (Aspergillus sp.): >20 µg/mL | MIC50 [1]: 0.1 µg/mL (≈ 0.152 µM) | MIC90 [1]: 1.22 µg/mL (≈ 1.85 µM) | MIC50 (Trichophyton rubrum): 0.32 µg/mL (≈ 0.485 µM) | MIC90 (Trichophyton rubrum): 0.796 µg/mL (≈ 1.21 µM) | MIC50 (Trichophyton tonsurans): 0.32 µg/mL (≈ 0.485 µM) | MIC90 (Trichophyton tonsurans): 0.1 µg/mL (≈ 0.152 µM) | ED50 (Cavia porcellus [2]): <0.31 mg/kg | MIC50 [3]: 0.032 µg/mL (≈ 0.0485 µM) | MIC90 [3]: 0.524 µg/mL (≈ 0.794 µM) | ED50 (Cavia porcellus [4]): <0.31 mg/kg | ED50 (Cavia porcellus [5]): <0.31 mg/kg

CCC(C)n1ncn(-c2ccc(N3CCN(c4ccc(OC[C@H]5CO[C@](Cn6cncn6)(c6ccc(Cl)cc6Cl)O5)cc4)CC3)cc2)c1=O (some centres undefined) [ITRACONAZOLE]
MIC50 (Trichophyton benhamiae; [6]): 0.01 µg/mL (≈ 0.0142 µM) | MIC90 (Trichophyton benhamiae; [7]): 0.129 µg/mL (≈ 0.183 µM) | MIC50 (Epidermophyton floccosum; [8]): 0.032 µg/mL (≈ 0.0453 µM) | MIC90 (Epidermophyton floccosum; [9]): 0.093 µg/mL (≈ 0.132 µM) | ED50 (Mus musculus; Mus musculus, read-out: ED50): 2.6 mg/kg | MIC90 (Candida): 17 µg/mL (≈ 24.1 µM) | MIC50 (Candida; Candida, read-out: MIC50): 0.1 µg/mL (≈ 0.142 µM) | MIC50 (Aspergillus sp.; [10]): 0.32 µg/mL (≈ 0.453 µM) | MIC90 (Aspergillus sp.; [11]): 1.18 µg/mL (≈ 1.68 µM) | MIC50 ([1]; Trichophyton, read-out: MIC50): 0.1 µg/mL (≈ 0.142 µM) | MIC90 ([1]; Trichophyton, read-out: MIC90): 1 µg/mL (≈ 1.42 µM) | MIC50 (Trichophyton rubrum; [12]): 0.01 µg/mL (≈ 0.0142 µM) | MIC90 (Trichophyton rubrum; [13]): 0.32 µg/mL (≈ 0.453 µM) | MIC50 (Trichophyton tonsurans; [14]): 0.32 µg/mL (≈ 0.453 µM) | MIC90 (Trichophyton tonsurans; [15]): 0.524 µg/mL (≈ 0.743 µM) | ED50 (Cavia porcellus [2]; [16]): 1.2 mg/kg | MIC50 ([3]; Microsporum, read-out: MIC50): 0.032 µg/mL (≈ 0.0453 µM) | MIC90 ([3]; Microsporum, read-out: MIC90): 0.524 µg/mL (≈ 0.743 µM) | ED50 (Cavia porcellus [4]; [16]): 0.84 mg/kg | ED50 (Cavia porcellus [5]; [16]): 1.18 mg/kg

CN(C/C=C/C#CC(C)(C)C)Cc1cccc2ccccc12 [TERBINAFINE]
MIC50 (Trichophyton benhamiae; [6]): 0.01 µg/mL (≈ 0.0343 µM) | MIC90 (Trichophyton benhamiae; [7]): 0.01 µg/mL (≈ 0.0343 µM) | MIC50 (Epidermophyton floccosum; [8]): 0.032 µg/mL (≈ 0.11 µM) | MIC90 (Epidermophyton floccosum; [9]): 0.093 µg/mL (≈ 0.319 µM) | ED50 (Mus musculus; Mus musculus, read-out: ED50): 2.5 mg/kg | MIC90 (Candida): 20 µg/mL (≈ 68.6 µM) | MIC50 (Candida; Candida, read-out: MIC50): 20 µg/mL (≈ 68.6 µM) | MIC50 (Aspergillus sp.; [10]): 0.32 µg/mL (≈ 1.1 µM) | MIC90 (Aspergillus sp.; [11]): 1.66 µg/mL (≈ 5.7 µM) | MIC50 ([1]; Trichophyton, read-out: MIC50): 0.01 µg/mL (≈ 0.0343 µM) | MIC90 ([1]; Trichophyton, read-out: MIC90): 0.032 µg/mL (≈ 0.11 µM) | MIC50 (Trichophyton rubrum; [12]): 0.01 µg/mL (≈ 0.0343 µM) | MIC90 (Trichophyton rubrum; [13]): 0.0254 µg/mL (≈ 0.0872 µM) | MIC50 (Trichophyton tonsurans; [14]): 0.032 µg/mL (≈ 0.11 µM) | MIC90 (Trichophyton tonsurans; [15]): 0.0524 µg/mL (≈ 0.18 µM) | ED50 (Cavia porcellus [2]; [16]): 10 mg/kg | MIC50 ([3]; Microsporum, read-out: MIC50): 0.032 µg/mL (≈ 0.11 µM) | MIC90 ([3]; Microsporum, read-out: MIC90): 0.032 µg/mL (≈ 0.11 µM) | ED50 (Cavia porcellus [4]; [16]): 10 mg/kg | ED50 (Cavia porcellus [5]; [16]): 10 mg/kg
